The source of these data is EP4740948A1 (Dong Wha Pharm. Co., Ltd., priority 2023, dated 2025).

In one test the target is EZH1 (Homo sapiens, UniProt Q92800). Briefly: AlphaLISA enzyme activity inhibition, EZH1. It counts as biochemical. The conditions noted are these: for inhibition at 0.005 µM: 5nM test substance; for inhibition at 0.01 µM: 10nM test substance. The essentials: (§1)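 Enzyme inhibition rate was calculated relative to DMSO from AlphaLISA signal, with acceptor beads added after a 2 h methylation reaction and donor beads 1 h later. Each enzyme, EZH1 or EZH2, was pre-mixed with compound (final 5 nM or 10 nM) in Tris buffer pH 8.0 before histone H3 peptide and SAM initiated the reaction.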
Background: In Alpha technology, singlet oxygen from a donor bead excites a nearby acceptor bead.

The target of the next test is EZH2 (Homo sapiens, UniProt Q15910). Briefly: AlphaLISA enzyme activity inhibition, EZH2. It counts as biochemical. The conditions noted are these: for inhibition at 0.005 µM: 5nM test substance; for inhibition at 0.01 µM: 10nM test substance. The essentials:
as §1

Another test deals with Lovo cells. Briefly: Cancer cell proliferation inhibition (Cell Counting Kit-8), colorectal cancer cell line. Conditions: Homo sapiens, LoVo, 264 h, 1000 nM, cultured seven to 11 days; read-out: % inhibition rate LoVo. It counts as cell-based. The essentials: (§2)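 CCK-8 readout after 7–11 day culture with 1000 nM compound; seeding 100–1,000 cells/well in 10% FBS medium (RPMI1640, McCoy's 5a, L-15 or DMEM). % inhibition vs untreated control.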
(In general: Formazan colour is commonly taken as a measure of viable cells.)

The next test relates to G401 cells. Briefly: Cancer cell proliferation inhibition (Cell Counting Kit-8), rhabdoid tumor cell line. It counts as cell-based. The conditions noted are these: Homo sapiens, G-401, 264 h, 1000 nM, cultured seven to 11 days; read-out: % inhibition rate G401. The method in brief:
(§3)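 Single 1000 nM dose of test substance, applied to cells seeded at 100–1,000 per well in 10% FBS medium, then culture for seven to 11 days. CCK-8 read-out; inhibition rate expressed as percent relative to untreated control.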

For the next test, the system named is MKN-45 cells. Briefly: Cancer cell proliferation inhibition (Cell Counting Kit-8), gastric cancer cell line. It counts as cell-based. Conditions: Homo sapiens, MKN-45, 264 h, 1000 nM, cultured seven to 11 days; read-out: % inhibition rate MKN -45. The essentials: as §3
The subject of a further test is SW-13 cells. Briefly: Cancer cell proliferation inhibition (Cell Counting Kit-8), adrenal cancer cell line. Conditions: Homo sapiens, SW13, 264 h, 1000 nM, cultured seven to 11 days; read-out: % inhibition rate SW-13. Type of test: cell-based. The method in brief:
as §2

In a further test the test system is MIA-PaCa-2 cells. Briefly: Cancer cell proliferation inhibition (Cell Counting Kit-8), pancreatic cancer cell line. It counts as cell-based. The conditions noted are these: Homo sapiens, MIA PaCa-2, 264 h, 1000 nM, cultured seven to 11 days; read-out: % inhibition rate MIA-Paca2. The essentials:
as §2

The next test relates to NCI-H1299 cells. Briefly: Cancer cell proliferation inhibition (Cell Counting Kit-8), lung cancer cell line. The conditions noted are these: Homo sapiens, NCI-H1299, 264 h, 1000 nM, cultured seven to 11 days; read-out: % inhibition rate NCI-H129 9. It counts as cell-based. The method in brief: as §2

The term inhibition denotes the drop in the measured response relative to a control, in per cent.

Sequence of EZH1 (Q92800 whole entry, species assumed): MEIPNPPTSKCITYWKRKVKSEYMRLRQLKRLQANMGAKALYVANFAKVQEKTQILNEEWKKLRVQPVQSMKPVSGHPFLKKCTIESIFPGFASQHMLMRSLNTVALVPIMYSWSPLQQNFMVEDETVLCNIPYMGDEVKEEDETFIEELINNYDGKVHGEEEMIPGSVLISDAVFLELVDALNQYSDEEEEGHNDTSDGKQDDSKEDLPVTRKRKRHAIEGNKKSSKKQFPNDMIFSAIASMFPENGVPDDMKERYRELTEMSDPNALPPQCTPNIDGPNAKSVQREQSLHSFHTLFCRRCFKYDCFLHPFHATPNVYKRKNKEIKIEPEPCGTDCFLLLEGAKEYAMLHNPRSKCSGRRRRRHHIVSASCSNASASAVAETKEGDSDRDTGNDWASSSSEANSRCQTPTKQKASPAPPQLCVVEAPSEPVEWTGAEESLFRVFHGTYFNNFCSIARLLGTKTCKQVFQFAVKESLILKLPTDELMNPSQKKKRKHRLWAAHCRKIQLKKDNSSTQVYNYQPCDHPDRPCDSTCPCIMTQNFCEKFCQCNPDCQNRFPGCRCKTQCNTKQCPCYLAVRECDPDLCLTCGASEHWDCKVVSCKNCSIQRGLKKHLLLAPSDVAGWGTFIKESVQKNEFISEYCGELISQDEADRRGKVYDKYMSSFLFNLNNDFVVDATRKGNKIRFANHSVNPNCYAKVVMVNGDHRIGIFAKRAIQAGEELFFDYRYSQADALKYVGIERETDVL
Sequence of EZH1 (O75530 whole entry partner, species assumed): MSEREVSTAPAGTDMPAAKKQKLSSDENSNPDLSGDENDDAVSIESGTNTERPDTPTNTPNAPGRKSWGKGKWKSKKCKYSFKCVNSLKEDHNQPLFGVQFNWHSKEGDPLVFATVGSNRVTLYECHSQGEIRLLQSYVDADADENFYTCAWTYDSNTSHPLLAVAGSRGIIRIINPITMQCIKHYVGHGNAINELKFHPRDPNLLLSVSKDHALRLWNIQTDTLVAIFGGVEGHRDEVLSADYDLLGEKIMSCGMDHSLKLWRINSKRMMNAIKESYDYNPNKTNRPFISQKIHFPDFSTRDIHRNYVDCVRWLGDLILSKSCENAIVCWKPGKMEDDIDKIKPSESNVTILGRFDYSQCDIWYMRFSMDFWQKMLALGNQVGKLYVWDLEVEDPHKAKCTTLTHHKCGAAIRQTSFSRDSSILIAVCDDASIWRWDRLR
Sequence of EZH1 (Q15022 whole entry partner, species assumed): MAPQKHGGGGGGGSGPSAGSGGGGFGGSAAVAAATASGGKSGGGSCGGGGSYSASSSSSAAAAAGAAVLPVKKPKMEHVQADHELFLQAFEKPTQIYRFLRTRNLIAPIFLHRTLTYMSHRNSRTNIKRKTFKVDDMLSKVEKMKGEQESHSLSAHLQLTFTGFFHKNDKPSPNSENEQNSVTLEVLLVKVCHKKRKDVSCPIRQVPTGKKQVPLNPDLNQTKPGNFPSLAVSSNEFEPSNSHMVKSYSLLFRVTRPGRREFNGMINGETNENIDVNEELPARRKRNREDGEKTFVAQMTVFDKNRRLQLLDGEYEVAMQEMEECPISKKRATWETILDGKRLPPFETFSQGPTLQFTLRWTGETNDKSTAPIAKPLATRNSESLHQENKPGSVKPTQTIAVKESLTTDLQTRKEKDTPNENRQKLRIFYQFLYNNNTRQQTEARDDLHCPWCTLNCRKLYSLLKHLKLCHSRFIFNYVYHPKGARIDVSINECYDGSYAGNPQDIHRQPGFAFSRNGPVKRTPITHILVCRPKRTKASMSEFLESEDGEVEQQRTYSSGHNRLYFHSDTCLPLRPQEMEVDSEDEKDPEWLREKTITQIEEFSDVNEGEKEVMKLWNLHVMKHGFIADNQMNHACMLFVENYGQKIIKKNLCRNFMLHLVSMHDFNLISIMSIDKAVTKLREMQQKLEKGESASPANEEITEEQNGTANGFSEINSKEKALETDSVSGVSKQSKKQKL
Sequence of EZH2 (Q15910 whole entry, species assumed): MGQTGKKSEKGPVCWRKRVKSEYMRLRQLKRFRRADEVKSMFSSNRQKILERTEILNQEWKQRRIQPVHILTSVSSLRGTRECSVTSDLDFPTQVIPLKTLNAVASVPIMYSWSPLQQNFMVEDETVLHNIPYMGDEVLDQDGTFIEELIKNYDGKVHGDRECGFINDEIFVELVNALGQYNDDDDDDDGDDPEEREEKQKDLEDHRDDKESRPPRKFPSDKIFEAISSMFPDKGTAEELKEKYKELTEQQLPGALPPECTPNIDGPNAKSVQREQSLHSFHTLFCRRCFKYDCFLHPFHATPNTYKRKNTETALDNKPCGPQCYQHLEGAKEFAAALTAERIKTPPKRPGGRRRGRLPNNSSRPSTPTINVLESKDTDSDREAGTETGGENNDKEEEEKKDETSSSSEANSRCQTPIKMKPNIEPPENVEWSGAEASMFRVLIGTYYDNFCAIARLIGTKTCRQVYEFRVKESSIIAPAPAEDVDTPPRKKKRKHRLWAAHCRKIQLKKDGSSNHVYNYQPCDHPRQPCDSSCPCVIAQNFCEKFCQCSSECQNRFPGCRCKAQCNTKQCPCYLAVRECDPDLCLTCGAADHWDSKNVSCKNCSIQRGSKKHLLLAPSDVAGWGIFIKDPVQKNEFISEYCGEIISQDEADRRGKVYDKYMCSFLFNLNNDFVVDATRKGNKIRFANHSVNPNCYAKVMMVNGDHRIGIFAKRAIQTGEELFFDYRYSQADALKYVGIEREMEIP
Sequence of EZH2 (O75530 whole entry partner, species assumed): as the sequence (O75530 whole entry partner, species assumed) above
Sequence of EZH2 (Q15022 whole entry partner, species assumed): as the sequence (Q15022 whole entry partner, species assumed) above

Take `CSc1cc(C)[nH]c(=O)c1CNC(=O)c1cc(-c2cnc(N3CCOCC3)nc2)c2c(c1C)OC(C)(C1CCN(CC(F)(F)F)CC1)O2` (stereo not shown) [Compound 68, 2,4-dimethyl-N-((6-methyl-4-(methylthio)-2-oxo-1,2-dihydropyridin-3-yl)methyl)-7-(2-morpholinopyrimidin-5-yl)-2-(1-(2,2,2-trifluoro)piperidin-4-yl)benzo[d][1,3]dioxole-5-carboxamide]: the inhibition at 0.005 µM stood at 56.4% against EZH1 and 87.3% on EZH2. Further, the inhibition at 0.01 µM was 78.9% on EZH1 and 99.7% at EZH2. Besides, the inhibition at 1 µM with Lovo cells was no less than 70%; in the test on G401 cells, no less than 70%; with MKN-45 cells, 30 to 70%; in the test on SW-13 cells, 30 to 70%; in the test on MIA-PaCa-2 cells, no more than 30%; in the test with NCI-H1299 cells it was no more than 30%.

As to `CCN1CCN(c2ncc(-c3cc(C(=O)NCc4c(SC)cc(C)[nH]c4=O)c(C)c4c3OC(C)(C3CCN(CC(F)(F)F)CC3)O4)cn2)CC1` (stereo not shown) [Compound 75, 7-(2-(4-ethylpiperazin-1-yl)pyrimidin-5-yl)-2,4-dimethyl-N-((6-methyl-4-(methylthio)-2-oxo-1,2-dihydropyridin-3-yl)methyl)-2-(1-(2,2,2-trifluoroethyl)piperidin-4-yl)benzo[d][1,3]dioxole-5-carboxamide], the figures for the inhibition at 0.005 µM against EZH1 and on EZH2 were 61.3% and 79%, respectively. Besides, the inhibition at 0.01 µM was 86% on EZH1 and 99.7% against EZH2. Further, the inhibition at 1 µM with Lovo cells was no less than 70%; with G401 cells, no less than 70%; in the test on MKN-45 cells, 30 to 70%; in the test on SW-13 cells, 30 to 70%; in the test on MIA-PaCa-2 cells, no more than 30%; with NCI-H1299 cells, no more than 30%.

Turning to `CCN(C)c1ncc(-c2cc(C(=O)NCc3c(SC)cc(C)[nH]c3=O)c(C)c3c2OC(C)(C2CCN(CC(F)(F)F)CC2)O3)cn1` (stereo not shown) [Compound 78], the inhibition at 0.005 µM against EZH1 was 53.1%; against EZH2, 86.1%. In addition, the values for the inhibition at 0.01 µM at EZH1 and at EZH2 were 79.3% and 98.1%, respectively. In addition, the inhibition at 1 µM with Lovo cells was no less than 70%; in the test on G401 cells, no less than 70%; in the test with MKN-45 cells, 30 to 70%; in the test on SW-13 cells it was no more than 30%; with MIA-PaCa-2 cells, no more than 30%; with NCI-H1299 cells, no more than 30%.

`CSc1cc(C)[nH]c(=O)c1CNC(=O)c1cc(-c2ccc(N3CCCCC3)cc2)c2c(c1C)OC(C)(C1CCN(CC(F)(F)F)CC1)O2` (stereo not shown) [Compound 90, 2,4-dimethyl-N-((6-methyl-4-(methylthio)-2-oxo-1,2-dihydropyridin-3-yl)methyl)-7-(4-(piperidin-1-yl)phenyl)-2-(1-(2,2,2-trifluoroethyl)piperidin-4-yl)benzo[d][1,3]dioxole-5-carboxamide]: the inhibition at 0.005 µM came to 20.2% against EZH1 and 60.1% against EZH2. For the same compound, the inhibition at 0.01 µM stood at 16.2% at EZH1 and 82.3% on EZH2. Besides, the inhibition at 1 µM in the test with Lovo cells is no less than 70%; in the test with G401 cells, 30 to 70%; in the test on MKN-45 cells, no more than 30%; in the test on SW-13 cells, no more than 30%; with MIA-PaCa-2 cells it was no more than 30%; in the test with NCI-H1299 cells, no more than 30%.

For the compound `CSc1cc(C)[nH]c(=O)c1CNC(=O)c1cc(-c2ccc(N3CCCCC3)nc2)c2c(c1C)OC(C)(C1CCN(CC(F)(F)F)CC1)O2` (stereo not shown) [Compound 91, 2,4-dimethyl-N-((6-methyl-4-(methylthio)-2-oxo-1,2-dihydropyridin-3-yl)methyl)-7-(6-(piperidin-1-yl)pyridin-3-yl)-2-(1-(2,2,2-trifluoroethyl)piperidin-4-yl)benzo[d][1,3]dioxole-5-carboxamide], the inhibition at 0.005 µM on EZH1 was determined as 24.5%; on EZH2 it was 47.4%. In addition, the results for the inhibition at 0.01 µM against EZH1 and against EZH2 were 41% and 71.6%, respectively. Also, the inhibition at 1 µM with Lovo cells is no less than 70%; in the test with G401 cells, 30 to 70%; in the test on MKN-45 cells, no more than 30%; with SW-13 cells, no more than 30%; in the test with MIA-PaCa-2 cells, no more than 30%; in the test on NCI-H1299 cells, no more than 30%.

Turning to `CSc1cc(C)[nH]c(=O)c1CNC(=O)c1cc(-c2cnc(N3CCSCC3)nc2)c2c(c1C)OC(C)(C1CCN(CC(F)(F)F)CC1)O2` (stereo not shown) [Compound 92, 2,4-dimethyl-N-((6-methyl-4-(methylthio)-2-oxo-1,2-dihydropyridin-3-yl)methyl)-7-(2-thiomorpholinopyrimidin-5-yl)-2-(1-(2,2,2-trifluoroethyl)piperidin-4-yl)benzo[d][1,3]dioxole-5-carboxamide], the figures for the inhibition at 0.005 µM at EZH1 and against EZH2 were 27.2% and 80.1%, respectively. For the same compound, the inhibition at 0.01 µM at EZH1 was determined as 43.2%; on EZH2 it was 91.8%. For the same compound, the inhibition at 1 µM was no less than 70% in the test with Lovo cells; no less than 70% in the test with G401 cells; 30 to 70% in the test with MKN-45 cells; no more than 30% in the test on SW-13 cells; no more than 30% in the test on MIA-PaCa-2 cells; no more than 30% with NCI-H1299 cells.

On to `CSc1cc(C)[nH]c(=O)c1CNC(=O)c1cc(-c2ccc3c(c2)OC(F)(F)O3)c2c(c1C)OC(C)(C1CCN(CC(F)(F)F)CC1)O2` (stereo not shown) [Compound 93, 2',2'-difluoro-2,7-dimethyl-N-((6-methyl-4-(methylthio)-2-oxo-1,2-dihydropyridin-3-yl)methyl)-2-(1-(2,2,2-trifluoroethyl)piperidin-4-yl)-[4,5'-bibenzo[d][1,3]dioxole]-6-carboxamide], for which the inhibition at 0.005 µM worked out at 16.8% against EZH1 and 32.2% against EZH2. The figures for the inhibition at 0.01 µM against EZH1 and on EZH2 were 12.7% and 37.9%, respectively. Besides, the inhibition at 1 µM in the test with Lovo cells is no less than 70%; in the test on G401 cells, no more than 30%; with MKN-45 cells it was no more than 30%; in the test on SW-13 cells it was 30 to 70%; in the test on MIA-PaCa-2 cells, no more than 30%; in the test with NCI-H1299 cells, no more than 30%.

As to `CSc1cc(C)[nH]c(=O)c1CNC(=O)c1cc(-c2ccc3c(c2)OCO3)c2c(c1C)OC(C)(C1CCN(CC(F)(F)F)CC1)O2` (stereo not shown) [Compound 94, 2,7-dimethyl-N-((6-methyl-4-(methylthio)-2-oxo-1,2-dihydropyridin-3-yl)methyl)-2-(1-(2,2,2-trifluoroethyl)piperidin-4-yl)-[4,5'-bibenzo[d][1,3]dioxole]-6-carboxamide], the inhibition at 0.005 µM against EZH1 turned out to be 25.3%; against EZH2, 65.1%. Also, the inhibition at 0.01 µM on EZH1 is 28.5%; against EZH2, 82%. Moreover, the inhibition at 1 µM was no less than 70% in the test on Lovo cells; no more than 30% with G401 cells; no more than 30% in the test on MKN-45 cells; no more than 30% with SW-13 cells; no more than 30% in the test on MIA-PaCa-2 cells; no more than 30% in the test with NCI-H1299 cells.

As for `CSc1cc(C)[nH]c(=O)c1CNC(=O)c1cc(-c2ccc3c(c2)OCO3)c2c(c1C)OC(C)(C1CCN(CC(F)F)CC1)O2` (stereo not shown) [Compound 95, 2-(1-(2,2-difluoroethyl)piperidin-4-yl)-2,7-dimethyl-N-((6-methyl-4-(methylthio)-2-oxo-1,2-dihydropyridin-3-yl)methyl)-[4,5'-bibenzo[d][1,3]dioxole]-6-carboxamide], the inhibition at 0.005 µM on EZH1 was found to be 38.1%; against EZH2 it was 83.2%. The inhibition at 0.01 µM was 46% against EZH1 and 91.1% at EZH2. The inhibition at 1 µM with Lovo cells is no less than 70%; in the test with G401 cells it was no less than 70%; in the test on MKN-45 cells it was 30 to 70%; in the test with SW-13 cells, no more than 30%; in the test with MIA-PaCa-2 cells, no more than 30%; with NCI-H1299 cells it was no more than 30%.

Regarding `CSc1cc(C)[nH]c(=O)c1CNC(=O)c1cc(-c2ccc3occc3c2)c2c(c1C)OC(C)(C1CCN(CC(F)(F)F)CC1)O2` (stereo not shown) [Compound 96, 7-(benzofuran-5-yl)-2,4-dimethyl-N-((6-methyl-4-(methylthio)-2-oxo-1,2-dihydropyridin-3-yl)methyl)-2-(1-(2,2,2-trifluoroethyl)piperidin-4-yl)benzo[d][1,3]dioxole-5-carboxamide], the figures for the inhibition at 0.005 µM against EZH1 and against EZH2 were 19.2% and 58.4%, respectively. Moreover, the figures for the inhibition at 0.01 µM against EZH1 and on EZH2 were 14.8% and 78%, respectively. For the same compound, the inhibition at 1 µM in the test on Lovo cells is no less than 70%; in the test with G401 cells, no more than 30%; in the test with MKN-45 cells, no more than 30%; in the test with SW-13 cells, no more than 30%; with MIA-PaCa-2 cells it was no more than 30%; in the test with NCI-H1299 cells it was no more than 30%.
